Assay results reported in patent US12030876B2, “Aryl hydrocarbon receptor (AHR) agonists and uses thereof” (Ikena Oncology, Inc., priority 2019, dated 2024).

Target: T1, AHR (Mus musculus, UniProt P30561)
T1 sequence (P30561 1-848 F348L/P471L): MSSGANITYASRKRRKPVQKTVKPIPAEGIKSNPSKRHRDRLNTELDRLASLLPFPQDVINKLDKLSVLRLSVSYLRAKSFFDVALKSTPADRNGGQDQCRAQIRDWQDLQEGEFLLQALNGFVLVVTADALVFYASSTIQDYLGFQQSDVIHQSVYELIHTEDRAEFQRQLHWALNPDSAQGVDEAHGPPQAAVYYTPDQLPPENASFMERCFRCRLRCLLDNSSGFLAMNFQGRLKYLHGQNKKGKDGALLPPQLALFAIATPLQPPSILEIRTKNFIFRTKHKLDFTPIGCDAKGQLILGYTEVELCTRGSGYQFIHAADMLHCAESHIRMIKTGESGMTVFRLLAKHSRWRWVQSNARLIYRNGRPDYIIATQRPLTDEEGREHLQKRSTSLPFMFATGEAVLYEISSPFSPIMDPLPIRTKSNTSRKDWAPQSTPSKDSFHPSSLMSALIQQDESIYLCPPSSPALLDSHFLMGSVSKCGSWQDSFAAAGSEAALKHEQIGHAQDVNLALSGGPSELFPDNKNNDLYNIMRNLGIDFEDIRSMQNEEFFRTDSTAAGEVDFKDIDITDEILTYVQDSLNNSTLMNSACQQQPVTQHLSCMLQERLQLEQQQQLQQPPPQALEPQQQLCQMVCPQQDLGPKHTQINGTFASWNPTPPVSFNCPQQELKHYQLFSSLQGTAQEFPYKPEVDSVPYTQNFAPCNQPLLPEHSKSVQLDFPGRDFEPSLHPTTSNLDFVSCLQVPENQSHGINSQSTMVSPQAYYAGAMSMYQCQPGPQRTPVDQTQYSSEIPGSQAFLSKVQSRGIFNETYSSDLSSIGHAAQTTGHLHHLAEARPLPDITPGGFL
Assay: P450 CYP1A1 Luciferase Assay, Hepa1.6 (agonist)
Type: cell-based, murine
Conditions: Hepa1.6, Table 2
Experimental: P450 CYP1A1 Luciferase Assay
AHR binds to Dioxin Responsive Elements (DRE) upstream of genes that it activates. One measure of AHR activity is P450 CYP1A1 protein levels determined by measuring CYP1A1 enzyme activity using a luminogenic CYP1A1 luciferin-based substrate. Luciferase activity will reflect CYP1A1 activity resulting from activation of AHR in the cells.
Murine Hepa1-6 or Hepa-1c1c7 or other murine cell line, human HepG2 or other human cell line are plated in media (96-well, 384-well or other plates) and incubated overnight at 37 C in a CO2 incubator.
(§1) The next day, an AHR agonist compound is added. Cells are incubated for 6, 16 or 24 hours or another time point and then lysed and incubated with a CYP1A1 luciferase-based substrate (e.g. Luciferin-CEE) for 3, 6, or 12 hours of another time point. Determination of luciferase activity as a read-out of CYP1A1 enzyme activity can be measured with a commercial kit such as the Promega P450 Glo CYP1A1 detection reagent or any kit or reagents that provide for measuring luciferase activity. The level of luciferase with only activating ligand (e.g. such as TCDD, kynurenine, ITE (2-(1H-indole-3-ylcarbonyl)-4-thiazolecarboxylic methyl ester), VAF347, BNF (beta-naphthoflavone), ICZ (6-formylindolo(3,2-b) carbazole or other AHR ligands) added is the maximum signal while the luciferase with no ligand is the minimum signal. EC50s can be determined as the concentration which activates half of the maximum luciferase activity.

SMILES | EC50 [nM]
Cc1sc(Nc2cccc(C(F)(F)F)c2)nc1-c1cccc(Cl)c1 [I-27] | > 1000
O=C(O)c1cccc(-c2csc(Nc3cccc(C(F)(F)F)c3)n2)c1 [I-33] | > 1000
C[N+](C)(C)CCC(=O)Nc1cccc(-c2csc(Nc3cccc(C(F)(F)F)c3)n2)c1 [I-34] | > 1000
FC(F)(F)Oc1cccc(-c2csc(Nc3cccc(C(F)(F)F)c3)n2)c1 [I-36] | > 1000
O=[N+]([O-])c1cccc(Nc2nc(-c3cccc(Cl)c3)cs2)c1 [I-38] | > 1000
O=C(c1cccc(-c2csc(Nc3cccc(C(F)(F)F)c3)n2)c1)N1CCOCC1 [I-43] | > 1000
N=C(N)c1cccc(-c2csc(Nc3cccc(C(F)(F)F)c3)n2)c1 [I-44] | > 1000
COc1ccc(-c2csc(Nc3cccc(C(F)(F)F)c3)n2)cc1 [I-46] | > 1000
CN1CCN(C(=O)c2cccc(-c3csc(Nc4cccc(C(F)(F)F)c4)n3)c2)CC1 [I-48] | > 1000
O=[N+]([O-])c1ccccc1-c1csc(Nc2cccc(C(F)(F)F)c2)n1 [I-49] | > 1000
CN(C)C(=O)c1cccc(-c2csc(Nc3cccc(C(F)(F)F)c3)n2)c1 [I-50] | > 1000

More lines, now with the values ahead:

EC50 [nM] | SMILES
> 1000 | C[N+]1(CCNC(=O)N(c2cccc(C(F)(F)F)c2)c2nc(-c3cccc(Cl)c3)cs2)CCCCC1 [I-28]
100 to 1000 | C[N+](C)(C)CCCC(=O)N(c1cccc(C(F)(F)F)c1)c1nc(-c2cccc(Cl)c2)cs1 [I-29]
100 to 1000 | CN(C)c1cccc(-c2csc(Nc3cccc(C(F)(F)F)c3)n2)c1 [I-30]
> 1000 | C[N+](C)(CCO)CCOC(=O)N(c1cccc(C(F)(F)F)c1)c1nc(-c2cccc(Cl)c2)cs1 [I-31]
> 1000 | FC(F)(F)c1cccc(-c2csc(Nc3cccc(Cl)c3)n2)c1 [I-32]
> 1000 | CN(CCOCCN(c1cccc(C(F)(F)F)c1)c1nc(-c2cccc(Cl)c2)cs1)CC(=O)O [I-39]
> 1000 | C[N+](C)(C)CCCC(=O)Nc1cccc(-c2csc(Nc3cccc(C(F)(F)F)c3)n2)c1 [I-40]
> 1000 | C[N+](C)(CCO)CCCC(=O)N(c1cccc(C(F)(F)F)c1)c1nc(-c2cccc(Cl)c2)cs1 [I-42]
> 1000 | C[N+](C)(C)CCNC(=O)Nc1cccc(-c2csc(Nc3cccc(C(F)(F)F)c3)n2)c1 [I-47]

Target: T2, AHR (Homo sapiens, UniProt P35869)
T2 construct: endogenous in cells; host or cells: HepG2 (human), transfected with a DRE-luciferase reporter only
T2 sequence (P35869 11-848): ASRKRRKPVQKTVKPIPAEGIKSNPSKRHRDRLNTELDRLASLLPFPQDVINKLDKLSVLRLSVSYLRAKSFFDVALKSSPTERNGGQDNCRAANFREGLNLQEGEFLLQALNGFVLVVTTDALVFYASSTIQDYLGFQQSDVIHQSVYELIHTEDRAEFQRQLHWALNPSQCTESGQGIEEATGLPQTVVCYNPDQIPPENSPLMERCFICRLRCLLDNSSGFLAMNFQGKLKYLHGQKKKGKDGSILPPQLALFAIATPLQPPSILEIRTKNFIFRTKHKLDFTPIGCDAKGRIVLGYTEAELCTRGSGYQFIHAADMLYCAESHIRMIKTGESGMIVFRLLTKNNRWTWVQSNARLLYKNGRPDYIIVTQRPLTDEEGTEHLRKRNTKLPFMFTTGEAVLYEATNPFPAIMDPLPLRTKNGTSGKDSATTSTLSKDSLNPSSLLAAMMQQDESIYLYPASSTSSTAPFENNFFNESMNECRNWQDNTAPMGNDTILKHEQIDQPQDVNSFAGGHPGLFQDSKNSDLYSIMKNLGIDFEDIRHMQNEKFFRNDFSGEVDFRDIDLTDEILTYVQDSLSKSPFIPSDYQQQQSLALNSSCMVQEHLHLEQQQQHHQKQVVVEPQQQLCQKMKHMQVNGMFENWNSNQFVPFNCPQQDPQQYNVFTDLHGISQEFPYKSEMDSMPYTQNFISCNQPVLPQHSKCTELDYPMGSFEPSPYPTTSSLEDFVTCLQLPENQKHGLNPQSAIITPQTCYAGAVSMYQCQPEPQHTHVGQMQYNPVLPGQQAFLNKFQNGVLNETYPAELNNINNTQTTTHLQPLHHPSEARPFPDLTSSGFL
Assay: DRE-Luciferase Reporter Assay, HepG2 (agonist)
Type: cell-based
Conditions: HepG2, Table 2; read-out: DRE-Luc HepG2 - Agonist: Average EC50
Experimental: DRE-Luciferase Reporter Assay
AHR binds to Dioxin Responsive Elements (DRE) upstream of genes that it activates. One measure of AHR activity is activation of a reporter gene, such as luciferase, downstream of one or multiple DRE elements. Luciferase activity reflects activation and inhibition of AHR in the cells expressing this reporter.
Murine Hepa1-6 or Hepa-1c1c7 or other murine cell line with a DRE-luciferase reporter either stably or transiently transfected are plated in media in plates (96-well, 384-well or other plates) and incubated overnight at 37 C in a CO2 incubator. Likewise, human HepG2 or other human cell line with a DRE-luciferase reporter either stably or transiently transfected are plated in media in plates (96-well, 384-well or other plates) and incubated overnight at 37 C in a CO2 incubator.
as §1, with “lysed” for “lysed and incubated with a CYP1A1 luciferase-based substrate (e.g. Luciferin-CEE)”, “determination” for “3, 6, or 12 hours of another time point. Determination”, “the AHR activation. Luciferase” for “CYP1A1 enzyme activity”, “Luciferase kit” for “P450 Glo CYP1A1 detection reagent”, “provide the luciferin substrate” for “provide”

SMILES | EC50 [nM]
Cc1sc(Nc2cccc(C(F)(F)F)c2)nc1-c1cccc(Cl)c1 [I-27] | 10 to 100
O=C(O)c1cccc(-c2csc(Nc3cccc(C(F)(F)F)c3)n2)c1 [I-33] | 100 to 1000
C[N+](C)(C)CCC(=O)Nc1cccc(-c2csc(Nc3cccc(C(F)(F)F)c3)n2)c1 [I-34] | 100 to 1000
FC(F)(F)Oc1cccc(-c2csc(Nc3cccc(C(F)(F)F)c3)n2)c1 [I-36] | 100 to 1000
O=[N+]([O-])c1cccc(Nc2nc(-c3cccc(Cl)c3)cs2)c1 [I-38] | 100 to 1000
O=C(c1cccc(-c2csc(Nc3cccc(C(F)(F)F)c3)n2)c1)N1CCOCC1 [I-43] | 100 to 1000
N=C(N)c1cccc(-c2csc(Nc3cccc(C(F)(F)F)c3)n2)c1 [I-44] | 100 to 1000
COc1ccc(-c2csc(Nc3cccc(C(F)(F)F)c3)n2)cc1 [I-46] | > 1000
CN1CCN(C(=O)c2cccc(-c3csc(Nc4cccc(C(F)(F)F)c4)n3)c2)CC1 [I-48] | > 1000
O=[N+]([O-])c1ccccc1-c1csc(Nc2cccc(C(F)(F)F)c2)n1 [I-49] | > 1000
CN(C)C(=O)c1cccc(-c2csc(Nc3cccc(C(F)(F)F)c3)n2)c1 [I-50] | > 1000

Continued, values first:

EC50 [nM] | SMILES
10 to 100 | C[N+]1(CCNC(=O)N(c2cccc(C(F)(F)F)c2)c2nc(-c3cccc(Cl)c3)cs2)CCCCC1 [I-28]
10 to 100 | C[N+](C)(C)CCCC(=O)N(c1cccc(C(F)(F)F)c1)c1nc(-c2cccc(Cl)c2)cs1 [I-29]
10 to 100 | CN(C)c1cccc(-c2csc(Nc3cccc(C(F)(F)F)c3)n2)c1 [I-30]
10 to 100 | C[N+](C)(CCO)CCOC(=O)N(c1cccc(C(F)(F)F)c1)c1nc(-c2cccc(Cl)c2)cs1 [I-31]
10 to 100 | FC(F)(F)c1cccc(-c2csc(Nc3cccc(Cl)c3)n2)c1 [I-32]
100 to 1000 | CN(CCOCCN(c1cccc(C(F)(F)F)c1)c1nc(-c2cccc(Cl)c2)cs1)CC(=O)O [I-39]
100 to 1000 | C[N+](C)(C)CCCC(=O)Nc1cccc(-c2csc(Nc3cccc(C(F)(F)F)c3)n2)c1 [I-40]
100 to 1000 | C[N+](C)(CCO)CCCC(=O)N(c1cccc(C(F)(F)F)c1)c1nc(-c2cccc(Cl)c2)cs1 [I-42]
> 1000 | C[N+](C)(C)CCNC(=O)Nc1cccc(-c2csc(Nc3cccc(C(F)(F)F)c3)n2)c1 [I-47]
